Tests used:
[1] = biological target: T1, Aurora kinase A (AURKA) (Homo sapiens, UniProt O14965); test: Luciferase assay for AURKA in HeLa LgBit (AURKA-HiBit KI) cell line; format: cell-based; conditions: HeLa LgBit (AURKA-HiBit KI) cells, measured after 12 hours
T1 construct: endogenous in cells; host or cells: HeLa LgBit (AURKA-HiBit KI), CRISPR/Cas9 knock-in at the endogenous AURKA locus
T1 sequence (O14965 1-403): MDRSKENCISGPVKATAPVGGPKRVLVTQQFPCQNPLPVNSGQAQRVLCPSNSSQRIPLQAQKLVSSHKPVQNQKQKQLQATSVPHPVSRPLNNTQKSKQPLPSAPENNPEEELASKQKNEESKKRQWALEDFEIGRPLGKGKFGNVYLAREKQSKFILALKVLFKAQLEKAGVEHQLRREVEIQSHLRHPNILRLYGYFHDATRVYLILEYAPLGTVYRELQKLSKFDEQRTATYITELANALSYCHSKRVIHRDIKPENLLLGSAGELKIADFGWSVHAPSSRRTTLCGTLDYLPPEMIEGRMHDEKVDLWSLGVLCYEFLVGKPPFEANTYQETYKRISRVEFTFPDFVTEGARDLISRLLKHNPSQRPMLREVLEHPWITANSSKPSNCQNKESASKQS
Summary of the method: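 HeLa cells stably expressing LgBit, with HiBit knocked in at the C-terminus of endogenous AURKA; 3×10^4 cells seeded, 18 h, then Endurazine substrate 2 h. Compounds tested at 10 nM or 100 nM; luminescence read at 470-480 nm after 12 h as real-time read-out.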

[2] = test system: NCI-H446 cell line; test: Cell viability assay for NCI-H446 cell line; format: cell-based; conditions: Homo sapiens, NCI-H446, 120 h; H446 cells, 5 days culture, EZ-Cytox; read-out: IC50 value (Level)
Excerpt: The NCI-H446 (hereafter H446) cell lines were provided from American Type Culture Collection (ATCC). For cell culture, RPMI medium 1640 (Gibco, Cat. No. 22400-089; Lot. No. 2522717), FBS (Gibco, Cat. No. 16000-044; Lot. No. 2716756P), Penicillin/Streptomycin (PS) (Gibco, Cat. No. 15140-122; Lot. No. 2585636), 75T cell culture flask (SPL, Cat. No. 70075), 96 well cell culture plate (SPL, Cat. No. 30096), PBS pH 7.4 (Gibco, Cat. No. 10010-023; Lot. No. 2561466), TrypLE™ Express (Gibco, Cat. No. 12605-010; Lot. No. 2492811), counting chamber (hematocytometer) (Hirschmann, Cat. No. 8100204) and 0.4% Trypan Blue solution (DYNEBIO, Cat. No. CBT3710; Lot. No. 20231017) were used. Cells were cultured in RPMI 1640 medium supplemented with 10% FBS and 1% PS and incubated at 37° C., 5% CO2 condition in CO2 incubator (ThermoScientific, Cat. No. 4111).
For experiment, the present compounds were fully dissolved in DMSO (Sigma-Aldrich Cat. No. D2438, Lot. No. RNBL7287.
In each well of 96-well cell culture plate, […] cells of H446 cell lines were seeded in 150 μl of total medium volume. After 24 hours of cell seeding, the present compounds were treated.
The present compounds were each diluted 3-folds from the highest concentration of 1000 nM to the lowest concentration of 0.15 nM. The compound was added to each well to make the total volume of […] and the cells were cultured for 5 days in CO2 incubator (Thermo Fisher Science, Cat. No. 4111).
Thereafter, 20 μl of EZ-Cytox (DOGEN, Cat. NO. EZ-3000, Lot. No. DLS2308) was added to each well and the cells were cultured for 4 hours at the same condition in CO2 incubator. After culture, the absorbance of the sample was measured by setting the wavelength of a plate reader (BMG Labtech, CLARIOstar Plus) to […]. The samples were shaked for 2 minutes in the plate reader before measurement.

Row | Structure (SMILES) | luminescence value (Level) ([1]; 10 nM compound) | luminescence value (Level) ([1]; 100 nM compound) | IC50 [2] [µM]
1 | O=C1CCC(c2ccc(N3CCC(CN4CCN(C(=O)Cc5ccc(Nc6ncc(F)c(Nc7ccc(C(=O)Nc8ccccc8Cl)cc7)n6)cc5)CC4)CC3)cc2)C(=O)N1 (stereo not drawn) [Compound 1, N-(2-chlorophenyl)-4-((2-((4-(2-(4-((1-(4-(2,6-dioxopiperidin-3-yl)phenyl)piperidin-4-yl)methyl)piperazin-1-yl)-2-oxoethyl)phenyl)amino)-5-fluoropyrimidin-4-yl)amino)benzamide] | C (C is 0.5 to 0.7) | A (A is <0.2) | 0.1 to 0.15
2 | O=C1CCC(c2ccc(N3CCN(CC4CCN(C(=O)c5ccc(Nc6ncc(F)c(Nc7ccc(C(=O)Nc8ccccc8Cl)cc7)n6)cc5)CC4)CC3)cc2)C(=O)N1 (stereo not drawn) [Compound 3, N-(2-chlorophenyl)-4-((2-((4-(4-((4-(4-(2,6-dioxopiperidin-3-yl)phenyl)piperazin-1-yl)methyl)piperidine-1-carbonyl)phenyl)amino)-5-fluoropyrimidin-4-yl)amino)benzamide] | C (C is 0.5 to 0.7) | A (A is <0.2) | 0.05 to 0.1
3 | O=C1CCC(c2ccc(N3CCN(CC(=O)N4CCC(NC(=O)c5ccc(Nc6ncc(F)c(Nc7ccc(C(=O)Nc8ccccc8Cl)cc7)n6)cc5)CC4)CC3)cc2)C(=O)N1 (stereo not drawn) [Compound 5, N-(2-chlorophenyl)-4-((2-((4-((1-(2-(4-(4-(2,6-dioxopiperidin-3-yl)phenyl)piperazin-1-yl)acetyl)piperidin-4-yl)carbamoyl)phenyl)amino)-5-fluoropyrimidin-4-yl)amino)benzamide] | B (B is 0.3 to 0.5) | A (A is <0.2) | < 0.05
4 | CC(CN1CCN(c2ccc(C3CCC(=O)NC3=O)cc2)CC1)C1CCN(NC(=O)c2ccc(Nc3ncc(F)c(Nc4ccc(C(=O)Nc5ccccc5Cl)cc4)n3)cc2)CC1 (stereo not drawn) [Compound 6, N-(2-chlorophenyl)-4-((2-((4-((4-(1-(4-(4-(2,6-dioxopiperidin-3-yl)phenyl)piperazin-1-yl)propan-2-yl)piperidin-1-yl)carbamoyl)phenyl)amino)-5-fluoropyrimidin-4-yl)amino)benzamide] | B (B is 0.3 to 0.5) | A (A is <0.2) | < 0.05
5 | O=C1CCC(c2ccc(N3CCN(CCC4CCN(NC(=O)c5ccc(Nc6ncc(F)c(Nc7ccc(C(=O)Nc8ccccc8Cl)cc7)n6)cc5)CC4)CC3)cc2)C(=O)N1 (stereo not drawn) [Compound 7, N-(2-chlorophenyl)-4-((2-((4-((4-(2-(4-(4-(2,6-dioxopiperidin-3-yl)phenyl)piperazin-1-yl)ethyl)piperidin-1-yl)carbamoyl)phenyl)amino)-5-fluoropyrimidin-4-yl)amino)benzamide] | A (A is <0.3) | A (A is <0.2) | < 0.05
6 | O=C1CCC(c2ccc(N3CC(CN4CCC(NC(=O)c5ccc(Nc6ncc(F)c(Nc7ccc(C(=O)Nc8ccccc8Cl)cc7)n6)cc5)CC4)C3)cc2)C(=O)N1 (stereo not drawn) [Compound 8, N-(2-chlorophenyl)-4-((2-((4-((1-((1-(4-(2,6-dioxopiperidin-3-yl)phenyl)azetidin-3-yl)methyl)piperidin-4-yl)carbamoyl)phenyl)amino)-5-fluoropyrimidin-4-yl)amino)benzamide] | B (B is 0.3 to 0.5) | A (A is <0.2) | < 0.05
7 | O=C1CCC(c2ccc(N3CCC(CN4CCC(NC(=O)c5ccc(Nc6ncc(F)c(Nc7ccc(C(=O)Nc8ccccc8Cl)cc7)n6)cc5)CC4)C3)cc2)C(=O)N1 (stereo not drawn) [Compound 9, N-(2-chlorophenyl)-4-((2-((4-((1-((1-(4-(2,6-dioxopiperidin-3-yl)phenyl)pyrrolidin-3-yl)methyl)piperidin-4-yl)carbamoyl)phenyl)amino)-5-fluoropyrimidin-4-yl)amino)benzamide] | B (B is 0.3 to 0.5) | A (A is <0.2) | < 0.05
8 | O=C1CCC(c2ccc(N3CCN(Cc4ccc(NC(=O)c5ccc(Nc6ncc(F)c(Nc7ccc(C(=O)Nc8ccccc8Cl)cc7)n6)cc5)cc4)CC3)cc2)C(=O)N1 (stereo not drawn) [Compound 13, N-(2-chlorophenyl)-4-((2-((4-((4-((4-(4-(2,6-dioxopiperidin-3-yl)phenyl)piperazin-1-yl)methyl)phenyl)carbamoyl)phenyl)amino)-5-fluoropyrimidin-4-yl)amino)benzamide] | C (C is 0.5 to 0.7) | B (B is 0.2 to 0.4) | > 0.2
9 | O=C1CCC(c2ccc(N3CCN(CCN4CCC(NC(=O)c5ccc(Nc6ncc(F)c(Nc7ccc(C(=O)Nc8ccccc8Cl)cc7)n6)cc5)CC4)CC3)cc2)C(=O)N1 (stereo not drawn) [Compound 18, N-(2-chlorophenyl)-4-((2-((4-((1-(2-(4-(4-(2,6-dioxopiperidin-3-yl)phenyl)piperazin-1-yl)ethyl)piperidin-4-yl)carbamoyl)phenyl)amino)-5-fluoropyrimidin-4-yl)amino) benzamide] | A (A is <0.3) | A (A is <0.2) | < 0.05

The next lines start with results.

Row | luminescence value (Level) ([1]; 10 nM compound) | luminescence value (Level) ([1]; 100 nM compound) | Structure (SMILES) | IC50 [2] [µM]
10 | C (C is 0.5 to 0.7) | A (A is <0.2) | CN(CC1CCN(c2ccc(C3CCC(=O)NC3=O)cc2)CC1)C1CCC(NC(=O)c2ccc(Nc3ncc(F)c(Nc4ccc(C(=O)Nc5ccccc5Cl)cc4)n3)cc2)CC1 (stereo not drawn) [Compound 4, N-(2-chlorophenyl)-4-((2-((4-((4-(((1-(4-(2,6-dioxopiperidin-3-yl)phenyl)piperidin-4-yl)methyl)(methyl)amino)cyclohexyl)carbamoyl)phenyl)amino)-5-fluoropyrimidin-4-yl)amino)benzamide] | 0.1 to 0.15
11 | B (B is 0.3 to 0.5) | A (A is <0.2) | O=C1CCC(c2ccc(N3CCC(CCC(=O)N4CCC(NC(=O)c5ccc(Nc6ncc(F)c(Nc7ccc(C(=O)Nc8ccccc8Cl)cc7)n6)cc5)CC4)CC3)cc2)C(=O)N1 (stereo not drawn) [Compound 12, N-(2-chlorophenyl)-4-((2-((4-((1-(3-(1-(4-(2,6-dioxopiperidin-3-yl)phenyl)piperidin-4-yl)propanoyl)piperidin-4-yl)carbamoyl)phenyl)amino)-5-fluoropyrimidin-4-yl)amino)benzamide] | < 0.05
12 | B (B is 0.3 to 0.5) | A (A is <0.2) | O=C1CCC(c2ccc(N3CCN(C[C@H]4CC[C@H](NC(=O)c5ccc(Nc6ncc(F)c(Nc7ccc(C(=O)Nc8ccccc8Cl)cc7)n6)cc5)CC4)CC3)cc2)C(=O)N1 (stereo partly drawn) [Compound 16, N-(2-chlorophenyl)-4-((2-((4-(((1r,4r)-4-((4-(4-(2,6-dioxopiperidin-3-yl)phenyl)piperazin-1-yl)methyl)cyclohexyl)carbamoyl)phenyl)amino)-5-fluoropyrimidin-4-yl)amino)benzamide] | 0.05 to 0.1
13 | A (A is <0.3) | A (A is <0.2) | O=C1CCC(c2ccc(N3CCN(CC[C@H]4CC[C@H](NC(=O)c5ccc(Nc6ncc(F)c(Nc7ccc(C(=O)Nc8ccccc8Cl)cc7)n6)cc5)CC4)CC3)cc2)C(=O)N1 (stereo partly drawn) [Compound 17, N-(2-chlorophenyl)-4-((2-((4-(((1r,4r)-4-(2-(4-(4-(2,6-dioxopiperidin-3-yl)phenyl)piperazin-1-yl)ethyl)cyclohexyl)carbamoyl)phenyl)amino)-5-fluoropyrimidin-4-yl)amino)benzamide] | 0.05 to 0.1

Source: patent US20260226071A1, “2, 4-DIANILINOPYRIMIDINE-BASED AURORA-A KINASE SELECTIVE DEGRADATION INDUCING COMPOUNDS” (UPPTHERA, INC., priority 2023, published 2026)
